6 compounds from US6342481B1, “Oligopeptides derived from C-reactive protein fragments” (priority 1993, dated 2002) can be followed below.

Test [1] has as its system Sprague Dawley rats injected with LPS (Salmonella Enteritidis). Put plainly: Survival of rats after intravenous LPS (septic shock test). Particulars: male Sprague Dawley rats, LPS i.v. at dose giving about 30% survival, compound 3 μg/kg i.v. immediately after, monitored 7 days; control (LPS only) 23. It is filed as in vivo, rat. As to the method: Male Sprague Dawley rats (175-200 g, Charles river, Calco, Italy) were intravenously injected with a dose of LPS (Salmonella Enteritidis, Sigma) in 0.2 ml of physiological solution, previously determined on the same batch of animals, as giving about 30% survival. Thereafter they were randomized into groups of at least 18 animals and each immediately inoculated intravenously with 3 μg/kg of some of the compounds representative of the invention. One group of animals was treated with LPS only and considered as the control. The animals were monitored for the following 7 days to determine their survival.

The subject of test [2] is Wistar rats with left coronary artery ligation. The test is described as follows: Cardioprotective activity following ischemia induced by occlusion of the left coronary artery in the anesthetized rat. Conditions: anesthetized male Wistar rats, 0.1 μg/kg/min i.v., left coronary artery ligated for 30 minutes. Type of test: in vivo. The text has this:
The cardiovascular activity of the compounds of the invention was investigated by means of a test aiming at evaluating the cardioprotective activity following ischemia induced by the occlusion of the left coronary artery in the anestethized rat, performed substantially as described by C. Clark et al. Journ. Exp. Methods, 3, 357, 1980. It is known that the occlusion of the coronary artery causes several events altering the ECG-pattern including, among others, hypoxia, arrhythmias, with eventual death of the laboratory animals.
In this test, male Wistar rats, (350-450 g, Charles River) were divided into groups of at least 18 animals, anestethized with nembutal (65 mg/kg i.p.) and each connected to an electrocardiograph for continuously monitoring the ECG. The animals, maintained under artificial ventilation, underwent thoracotomy and, after incision of the pericardium, a suture thread was passed around the left coronary artery, near to its origins. The animals were then administered intravenously with 0.1 μg/kg/min of the compounds of the invention dissolved in saline. One group of animals (control group) were administered intravenously with saline (5 ml/kg/hr). After 15 minutes recovery, and provided that electocardiographic alteration was not recorded, the left coronary artery was ligated and the ligature was maintained for 30 minutes. During this period the animals were monitored and ventricular tachycardia (VT), ventricular fibrillations (VF) and mortality were7 assessed.

Residues, ends and D or L forms follow the SMILES beside them.

`CC(C)CN(C(=O)CN)[C@@H](CCCCN)C(=O)N1CCC[C@H]1C(=O)O` [Example 9, H-Gly-(isoBut)Lys-Pro-OH.AcOH] gave a Survival percentage in test [1] of 39%.

Compound `N=C(N)NCCC[C@H](NC(=O)[C@@H]1CCCN1C(=O)[C@@H]1CCCN1C(=O)CN)C(=O)O` [Example 11, H-Gly-Pro-Pro-Arg-OH.AcOH] (H-GPPR-OH) displayed a Survival percentage in test [1] of 57%. As for `CCN[C@@H](CCCCN)C(=O)N1CCC[C@H]1C(=O)O` [Example 12, H-(Et)Lys-Pro-OH.AcOH], the Survival percentage in test [1] was 44%. The same compound displayed a Mortality % in test [2] (control 29) of 12%. Also, the “Incidence % V.F. (ventricular fibrillations)” value in test [2] (control 86) was determined as 75%. Also, the “Incidence % V.T. (ventricular tachycardia)” value in test [2] (control 100) was 10%.

In turn, “H-Gly-(Bzl)Lys-Pro-Arg-OH.2AcOH [Example 10]” registered a Survival percentage in test [1] of 43%.

With “H-Gly-(Et)Lys-Pro-Arg-OH.2AcOH [Example 15]”, the Survival percentage in test [1] is recorded as 33%. For “H-Gly-(Et)Lys-Pro-Lys-OH.AcOH [Example 14]”, the Survival percentage in test [1] turned out to be 48%.
